Measurements published in patent US20140378416A1, “SILYL-CONTAINING HETEROCYCLIC COMPOUNDS AND METHODS OF USE THEREOF FOR THE TREATMENT OF VIRAL DISEASES” (priority 2011, published 2014).

What was measured:
[1] = test system: HCV replicon 2b; assay: Cell-based HCV replicon assay (TaqMan), genotype 2b replicon; conditions: Hepatitis C virus, 72 h, read-out: 2b EC90, HCV 2b replicon cells, replicon RNA by TaqMan on day 3; EC90 = concentration for ΔCT=3.2 over baseline
Procedure: (§1) Measurement of inhibition by compounds of the present invention was performed using the HCV replicon system. Several different replicons encoding different HCV genotypes or mutations were used. In addition, potency measurements were made using different formats of the replicon assay, including different ways of measurements and different plating formats. See Jan M. Vrolijk et al., A replicons-based bioassay for the measurement of interferons in patients with chronic hepatitis C, 110 J. VIROLOGICAL METHODS 201 (2003); Steven S. Carroll et al., Inhibition of Hepatitis C Virus RNA Replication by 2′-Modified Nucleoside Analogs, 278(14) J. BIOLOGICAL CHEMISTRY 11979 (2003). However, the underlying principles are common to all of these determinations, and are outlined below.
(§2) Compounds of the present invention were assayed for cell-based anti-HCV activity using the following protocol. Replicon cells were seeded at 5000 cells/well in 96-well collagen I-coated Nunc plates in the presence of the test compound. Various concentrations of test compound, typically in 10 serial 2-fold dilutions, were added to the assay mixture, with the starting concentration ranging from 250 μM to 1 μM. The final concentration of DMSO was 0.5%, fetal bovine serum was 5%, in the assay media. Cells were harvested on day 3 by the addition of 1× cell lysis buffer (Ambion cat #8721). The replicon RNA level was measured using real time PCR (TaqMan® assay). The amplicon was located in 5B. The PCR primers were: 5B.2F, ATGGACAGGCGCCCTGA (SEQ. ID NO. 1); 5B.2R, […] (SEQ. ID NO. 2); the probe sequence was FAM-labeled CACGCCATGCGCTGCGG (SEQ. ID NO. 3). GAPDH RNA was used as endogenous control and was amplified in the same reaction as NS5B (multiplex PCR) using primers and VIC-labeled probe recommended by the manufacturer (PE Applied Biosystem). The real-time […] reactions were run on ABI PRISM 7900HT Sequence Detection System using the following program: 48° C. for 30 minutes, 95° C. for 10 minutes, 40 cycles of 95° C. for 15 sec, 60° C. for 1 minute. The ACT values (CT5B-CTGAPDH) were plotted against the concentration of test compound and fitted to the sigmoid dose-response model using XLfit4 (MDL). EC50 was defined as the concentration of inhibitor necessary to achieve ΔCT=1 over the projected baseline; EC90 the concentration necessary to achieve ΔCT=3.2 over the baseline. Alternatively, to quantitate the absolute amount of replicon RNA, a standard curve was established by including serially diluted T7 transcripts of replicon RNA in the Taqman assay. All TaqMan® reagents were from PE Applied Biosystems. Such an assay procedure was described in detail in e.g. Malcolm et al., Antimicrobial Agents and Chemotherapy 50: 1013-1020 (2006).
(§3) HCV replicon EC50 assay data for various replicons and mutants was calculated for selected compounds of the present invention using this method and is provided in the tables above herein.

[2] = test system: HCV replicon 1a; assay: Cell-based HCV replicon assay (TaqMan), genotype 1a replicon; conditions: Hepatitis C virus, 72 h, HCV 1a replicon cells, replicon RNA by TaqMan on day 3; EC90 = concentration for ΔCT=3.2 over baseline
Procedure: as §1, §2, §3

[3] = test system: HCV replicon 1a Y93H; assay: Cell-based HCV replicon assay (TaqMan), genotype 1a Y93H mutant replicon; conditions: Hepatitis C virus, 72 h, read-out: 1a Y93H EC90, HCV 1a Y93H mutant replicon cells, replicon RNA by TaqMan on day 3; EC90 = concentration for ΔCT=3.2 over baseline
Procedure: as §1, §2, §3

[4] = test system: HCV replicon 1b; assay: Cell-based HCV replicon assay (TaqMan), genotype 1b replicon; conditions: Hepatitis C virus, 72 h, HCV 1b replicon cells, replicon RNA by TaqMan on day 3; EC90 = concentration for ΔCT=3.2 over baseline
Procedure: as §1, §2, §3

Structure (SMILES) | EC90 [1] | EC90 [2] | EC90 [3] | EC90 [4]
COC(=O)N[C@H](C(=O)N1C[Si](C)(C)C[C@H]1c1ncc(-c2ccc(-c3ccc(-c4[nH]c([C@@H]5CCCN5C(=O)[C@@H](NC(=O)OC)C(C)C)nc4C4CC4)cc3)cc2)[nH]1)C(C)C [Compound 63] | 451 nM | 0.69 nM | 882 nM | 
CC(C)(C)OC(=O)N1CCC[C@H]1c1cnc(-c2ccc3c(c2)[Si](C)(C)c2cc(-c4cnc([C@@H]5CCCN5C(=O)OC(C)(C)C)[nH]4)ccc2-3)[nH]1 [Compound 80] |  | > 1 nM |  | 467 nM
CC(C)(C)OC(=O)N1CCC[C@H]1C(=O)Nc1n[nH]c2ccc(-c3ccc(-c4cnc([C@@H]5C[Si](C)(C)CN5C(=O)OC(C)(C)C)[nH]4)cc3)cc12 [Compound 76] |  | > 1000 nM | > 10000 nM | 
COC(=O)N[C@H](C(=O)N1C[Si](C)(C)C[C@H]1c1ncc(-c2ccc(-c3ccc4[nH]c([C@@H]5CC(F)(F)CN5C(=O)[C@@H](NC(=O)OC)C(C)C)nc4c3)cc2F)[nH]1)C(C)C [Compound 71] |  | > 1 nM | > 1000 nM | 0.005 nM
COC(=O)N[C@H](C(=O)N1C[Si](C)(C)C[C@H]1c1ncc(-c2ccc(-c3ccc(-c4[nH]c([C@@H]5C[C@H]6C[C@H]6N5C(=O)[C@@H](NC(=O)OC)C(C)C)nc4F)cc3)cc2)[nH]1)C(C)C [Compound 44] | 168 nM | 0.17 nM | 285 nM | 
CC(C)(C)OC(=O)N1C[Si](C)(C)C[C@H]1c1ncc(-c2ccc(-c3ccc(-c4[nH]c([C@@H]5C[C@H]6C[C@H]6N5C(=O)OC(C)(C)C)nc4F)cc3)cc2)[nH]1 [Compound 42] | > 1000 nM | > 1 nM | > 1000 nM | 
COC(=O)N[C@H](C(=O)N1CCC[C@H]1c1cnc(-c2ccc(-c3ccc(-c4cnc([C@@H]5C[Si](C)(C)CN5C(=O)[C@@H](NC(=O)OC)C(C)C)[nH]4)cc3)cc2)[nH]1)C(C)C [Compound 72] |  | 0.092 nM | 330 nM | 0.005 nM
C[Si]1(C)CN[C@H](c2ncc(-c3ccc(-c4ccc(-c5cnc([C@@H]6CCCN6)[nH]5)cc4)cc3)[nH]2)C1 [Compound 2] |  | > 100 nM |  | > 1000 nM
COC(=O)N[C@H](C(=O)N1C[C@H](F)C[C@H]1c1ncc(-c2ccc(-c3ccc(-c4cnc([C@@H]5C[Si](C)(C)CN5C(=O)[C@@H](NC(=O)OC)C(C)C)[nH]4)cc3)cc2)[nH]1)C(C)C [Compound 7] |  | 0.77 nM | 229 nM | 0.009 nM
C[Si]1(C)C[C@@H](c2ncc(-c3ccc(-c4ccc(-c5[nH]c([C@@H]6CCCN6C(=O)[C@H]6CCCO6)nc5Cl)cc4)cc3)[nH]2)N(C(=O)[C@H]2CCCO2)C1 [Compound 67] | > 1000 nM | 211 nM | 510 nM | 
COC(=O)N[C@H](C(=O)N1C[Si]2(CCCC2)C[C@H]1c1cnc(-c2ccc(-c3ccc(-c4cnc([C@@H]5CCCN5C(=O)[C@@H](NC(=O)OC)C(C)C)[nH]4)cc3)cc2)[nH]1)C(C)C [Compound 73] |  | 0.38 nM | 973 nM | 0.006 nM
COC(=O)N[C@H](C(=O)N1CC(F)(F)C[C@H]1c1ncc(-c2ccc(-c3ccc(-c4cnc([C@@H]5C[Si](C)(C)CN5C(=O)[C@@H](NC(=O)OC)C(C)C)[nH]4)cc3)cc2)[nH]1)C(C)C [Compound 4] |  | 0.1 nM | 272 nM | 0.007 nM
COC(=O)N[C@H](C(=O)N1C[Si](C)(C)C[C@H]1c1ncc(-c2ccc(-c3ccc(-c4cnc([C@@H]5C[Si](C)(C)CN5C(=O)[C@@H](NC(=O)OC)C(C)C)[nH]4)cc3)cc2)[nH]1)C(C)C [Compound 6] |  | 0.98 nM | > 1000 nM | 0.015 nM
COC(=O)N[C@H](C(=O)N1CCC[C@H]1c1ncc(-c2ccc(-c3ccc(-c4cnc([C@@H]5C[Si](C)(C)CN5C(=O)[C@@H](NC(=O)OC)C(C)C)[nH]4)c(OC)c3)cc2)[nH]1)C(C)C [Compound 70] |  | > 1 nM | > 1000 nM | 0.006 nM
COC(=O)N[C@H](C(=O)N1CCC[C@H]1c1ncc(-c2ccc(-c3ccc(-c4cnc([C@@H]5C[Si](C)(C)CN5C(=O)[C@@H](NC(=O)OC)C(C)C)[nH]4)cc3)cc2)[nH]1)C(C)C [Compound 3] |  | 0.16 nM | 398 nM | 0.005 nM
COC(=O)N[C@H](C(=O)N1C[Si](C)(C)C[C@H]1c1ncc(-c2ccc(-c3ccc(-c4cnc([C@@H]5C[C@H]6C[C@H]6N5C(=O)[C@@H](NC(=O)OC)C5CCOCC5)[nH]4)cc3)cc2)[nH]1)C1CCOCC1 [Compound 48] | 9 nM | 0.18 nM | 144 nM | 
COC(=O)N[C@H](C(=O)N1C[Si](C)(C)C[C@H]1c1nc(Cl)c(-c2ccc(-c3ccc(-c4[nH]c([C@@H]5C[C@H]6C[C@H]6N5C(=O)[C@@H](NC(=O)OC)C5CCOCC5)nc4Cl)cc3)cc2)[nH]1)C1CCOCC1 [Compound 54] | 0.48 nM | 0.023 nM | 2.5 nM | 
COC(=O)N[C@H](C(=O)N1C[C@H](F)C[C@H]1c1ncc(-c2ccc(C#Cc3ccc(-c4cnc([C@@H]5C[Si](C)(C)CN5C(=O)OC(C)(C)C)[nH]4)cc3)cc2)[nH]1)C(C)C [Compound 56] |  | 681 nM | > 1000 nM | 
COC(=O)N[C@H](C(=O)N1CCC[C@H]1c1ncc(-c2ccc(-c3ccc4[nH]c([C@@H]5C[Si](C)(C)CN5C(=O)[C@@H](NC(=O)OC)C(C)C)nc4c3)cc2)[nH]1)C(C)C [Compound 9] |  | > 1 nM | > 1000 nM | < 1 nM
COC(=O)N[C@@H](C(=O)N1CCC[C@@H]1c1ncc(-c2ccc(-c3ccc(-c4cnc([C@H]5C[Si](C)(C)CN5C(=O)[C@H](NC(=O)OC)C5CC5)[nH]4)cc3)cc2)[nH]1)C1CC1 [Compound 23] | 550 nM | 1.16 nM | 1000 nM | 
COC(=O)N[C@H](C(=O)N1CC(F)(F)C[C@H]1c1cnc(-c2ccc(-c3ccc(-c4cnc([C@@H]5C[Si](C)(C)CN5C(=O)[C@@H](NC(=O)OC)C(C)C)[nH]4)cc3)cc2)[nH]1)C(C)C [Compound 74] |  | 0.27 nM | 644 nM | 
CC(C)(C)OC(=O)N1CCC[C@H]1C(=O)Nc1nn(C(=O)OC(C)(C)C)c2ccc(-c3ccc(-c4cnc([C@@H]5C[Si](C)(C)CN5C(=O)OC(C)(C)C)[nH]4)cc3)cc12 [Compound 77] |  | > 1000 nM | > 10000 nM | 
COC(=O)N[C@H](C(=O)N1CCC[C@H]1c1cnc(-c2ccc3c(c2)[Si](C)(C)c2cc(-c4cnc([C@@H]5CCCN5C(=O)[C@@H](NC(=O)OC)C(C)C)[nH]4)ccc2-3)[nH]1)C(C)C [Compound 82] |  | 0.076 nM | 811 nM | 0.043 nM
COC(=O)N[C@H](C(=O)N1C[Si](C)(C)C[C@H]1c1ncc(-c2ccc(-c3ccc(-c4cnc([C@@H]5[C@H]6CC[C@H](C6)N5C(=O)[C@@H](NC(=O)OC)C(C)C)[nH]4)cc3)cc2)[nH]1)C(C)C [Compound 5] |  | 0.21 nM | 203 nM | 0.004 nM
CC(C)(C)OC(=O)N1C[Si](C)(C)C[C@H]1c1ncc(-c2ccc(-c3ccc(-c4ncc([C@@H]5C[C@H]6C[C@H]6N5C(=O)OC(C)(C)C)[nH]4)cc3)cc2)[nH]1 [Compound 68] |  | > 1000 nM | > 1000 nM | 
COC(=O)N[C@H](C(=O)N1C[C@H](F)C[C@H]1c1ncc(-c2ccc(C#Cc3ccc(-c4cnc([C@@H]5C[Si](C)(C)CN5)[nH]4)cc3)cc2)[nH]1)C(C)C [Compound 57] |  | 780 nM | > 1000 nM | 
CC(C)(C)OC(=O)N1C[Si](C)(C)C[C@H]1c1ncc(-c2ccc(-c3ccc(-c4[nH]c([C@@H]5CCCN5C(=O)OC(C)(C)C)nc4C4CC4)cc3)cc2)[nH]1 [Compound 61] |  | 81 nM | 655 nM | 
